Experimental data from the supplement of paper PMC10307832.

Experiments:
Assay in all cases: relative viability (nuclei count vs DMSO), 5 days (fraction); higher = more cells survive
CX-5461 + OSI-027 = compound: Cc1cnc(CNC(=O)c2c(=O)c3ccc(N4CCCN(C)CC4)nc3n3c2sc2ccccc23)cn1 [CX-5461] + COc1cccc2cc(-c3nc([C@H]4CC[C@H](C(=O)O)CC4)n4ncnc(N)c34)[nH]c12 [OSI-027] (partner 0.5 µM)
How it was run: (§1)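 A single step with final 0.05% Triton X-100, 1% formaldehyde and 1 ug/ml Hoechst fixed the cells and stained nuclei 5 days after treatment. Lung cancer cell lines in 1536-well plates had been treated by pin tool the day after seeding with one drug alone or a fixed anchor-drug dose plus five library-drug doses (not always all listed) in √10 steps, and nuclei were counted on 4× images. Relative viability is the ratio of nuclei in treated wells to nuclei in vehicle wells, taken as the median of duplicate plates.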

CX-5461 + Tozasertib = compound: Cc1cnc(CNC(=O)c2c(=O)c3ccc(N4CCCN(C)CC4)nc3n3c2sc2ccccc23)cn1 [CX-5461] + Cc1cc(Nc2cc(N3CCN(C)CC3)nc(Sc3ccc(NC(=O)C4CC4)cc3)n2)n[nH]1 [Tozasertib] (partner 0.1 µM)
How it was run: as §1

CX-5461 + AZD7762 = compound: Cc1cnc(CNC(=O)c2c(=O)c3ccc(N4CCCN(C)CC4)nc3n3c2sc2ccccc23)cn1 [CX-5461] + NC(=O)Nc1cc(-c2cccc(F)c2)sc1C(=O)N[C@H]1CCCNC1 [AZD7762] (partner 0.2 µM)
How it was run: as §1

IMD-0354 + Alpelisib = compound: O=C(Nc1cc(C(F)(F)F)cc(C(F)(F)F)c1)c1cc(Cl)ccc1O [IMD-0354] + Cc1nc(NC(=O)N2CCC[C@H]2C(N)=O)sc1-c1ccnc(C(C)(C)C(F)(F)F)c1 [Alpelisib] (partner 2 µM)
How it was run: as §1

| Cell Line | relative viability (CX-5461 + OSI-027; first compound 0.01 µM) | relative viability (CX-5461 + OSI-027; first compound 0.03162 µM) | relative viability (CX-5461 + OSI-027; first compound 0.1 µM) | relative viability (CX-5461 + OSI-027; first compound 0.3162 µM) | relative viability (CX-5461 + OSI-027; first compound 1 µM) | relative viability (CX-5461 + Tozasertib; first compound 0.01 µM) | relative viability (CX-5461 + Tozasertib; first compound 0.03162 µM) | relative viability (CX-5461 + Tozasertib; first compound 0.1 µM) | relative viability (CX-5461 + Tozasertib; first compound 0.3162 µM) | relative viability (CX-5461 + Tozasertib; first compound 1 µM) | relative viability (CX-5461 + AZD7762; first compound 0.01 µM) | relative viability (CX-5461 + AZD7762; first compound 0.03162 µM) | relative viability (CX-5461 + AZD7762; first compound 0.1 µM) | relative viability (CX-5461 + AZD7762; first compound 1 µM) | relative viability (IMD-0354 + Alpelisib; first compound 0.04 µM) | relative viability (IMD-0354 + Alpelisib; first compound 0.1265 µM) | relative viability (IMD-0354 + Alpelisib; first compound 0.4 µM) | relative viability (IMD-0354 + Alpelisib; first compound 1.265 µM) | relative viability (IMD-0354 + Alpelisib; first compound 4 µM) | relative viability (CX-5461 + AZD7762; first compound 0.3162 µM) |
| --- | --- | --- | --- | --- | --- | --- | --- | --- | --- | --- | --- | --- | --- | --- | --- | --- | --- | --- | --- | --- |
| LXF-289 | 0.755 | 0.924 | 0.892 | 0.416 | 0.581 | 0.2 | 0.224 | 0.16 | 0.179 | 0.179 | 1.16 | 1.12 | 1.08 | 0.873 | 1.09 | 1.06 | 0.711 | 0.265 | 0.0502 | – |
| ABC-1 | 0.465 | 0.562 | 0.251 | – | 0.362 | 0.15 | 0.194 | 0.188 | – | 0.186 | 0.753 | 0.777 | 0.845 | 0.608 | 1.15 | 1.1 | 0.887 | 0.375 | 0.252 | – |
| NCI-H650 | 0.578 | 0.558 | 0.483 | 0.536 | 0.352 | 0.735 | 0.815 | 0.715 | 0.324 | 0.54 | 1.03 | 1.01 | 0.727 | 0.623 | 1.03 | 1.07 | 0.943 | 0.615 | 0.215 | 1.05 |
| NCI-H2085 | 0.845 | 0.75 | 0.625 | 0.557 | 0.557 | 0.734 | 0.849 | 0.785 | 0.752 | 0.798 | 1.05 | 1.03 | 0.918 | 0.719 | 0.899 | 0.888 | 0.764 | 0.492 | 0.269 | 1.04 |
| NCI-H1944 | 0.49 | 0.446 | 0.377 | 0.252 | 0.259 | 0.259 | 0.271 | 0.244 | 0.228 | 0.248 | 0.444 | 0.512 | 0.358 | 0.195 | 0.694 | 0.854 | – | 0.902 | 0.144 | 0.269 |
| LC-2-ad | 0.919 | 0.866 | 0.705 | 0.718 | 0.546 | 0.377 | 0.446 | 0.469 | 0.411 | 0.364 | 0.834 | 0.919 | 0.836 | 0.742 | 0.979 | 0.835 | 0.397 | 0.106 | 0.115 | 0.848 |
| NCI-H1355 | 0.438 | 0.428 | 0.456 | 0.267 | 0.321 | 0.579 | 0.594 | 0.53 | 0.323 | 0.548 | 0.75 | 0.833 | 0.613 | 0.288 | 1.07 | 0.692 | 0.736 | 0.561 | 0.222 | 0.78 |
| H3255 | 0.568 | 0.542 | 0.559 | 0.543 | 0.568 | 0.691 | 0.603 | 0.694 | 0.568 | 0.527 | 0.967 | 0.82 | 0.943 | 0.794 | 0.723 | 0.793 | 0.46 | 0.364 | 0.241 | 0.834 |
